Test results: ChEMBL document CHEMBL1201862, “PubChem BioAssay data set” (2004)
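Following 48 hours of exposure in 96-well plates, responses at five concentrations were used to interpolate endpoints linearly. GI50 = concentration required for 50% inhibition of growth.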 The source made the active and inactive calls. Rule as the data show it: active = GI50 up to about 1.1 µM and inactive = higher.

Columns and labels:
Assay in all cases: NCI-60 cell line screen, 48 h
[1] = system: BT-549
[2] = system: DU-145
[3] = system: HCT-116
[4] = system: HOP-62
[5] = system: K562
[6] = system: KM12
[7] = system: MOLT-4
[8] = system: NCI-H23
[9] = system: NCI-H460
[10] = system: NCI-H522
[11] = system: NCI/ADR-RES
[12] = system: OVCAR-5
[13] = system: SF-268
[14] = system: SN12C
[15] = system: SNB-75
[16] = system: U-251
[17] = system: UACC-257
[18] = system: RPMI-8226
[19] = system: SF-539
[20] = system: SK-OV-3

Measured: GI50

CC(CCc1nc2ccccc2s1)(c1ccc(O)cc1)c1ccc(O)cc1
inactive: [1] 19.4 µM | [2] 17.1 µM | [3] 18.2 µM | [4] 17.7 µM | [5] 15.4 µM | [6] 15.4 µM | [7] 12.7 µM | [8] 17.6 µM | [9] 16.4 µM | [10] 15 µM | [11] 25.4 µM | [12] 18.1 µM | [13] 20 µM | [14] 17.9 µM | [15] 18.4 µM | [16] 14.6 µM | [17] 15.3 µM

CC(O)/C=C/C1OC(=O)CC1Nc1ccc(C=O)cc1 (centres undefined)
inactive: [1] > 100 µM | [2] > 100 µM | [3] > 100 µM | [4] 20.9 µM | [5] 41.5 µM | [6] > 100 µM | [7] 10.8 µM | [8] 59 µM | [9] 11.2 µM | [11] > 100 µM | [12] > 100 µM | [18] 24.2 µM | [13] > 100 µM | [19] 87.1 µM | [20] > 100 µM | [14] > 100 µM | [15] > 100 µM | [16] 77.6 µM | [17] 48.2 µM

CCc1nc2ccc(C(F)(F)F)cc2[nH]c1=O
inactive: [1] > 100 µM | [2] > 100 µM | [3] > 100 µM | [4] > 100 µM | [5] > 100 µM | [6] > 100 µM | [7] > 100 µM | [8] > 100 µM | [9] > 100 µM | [11] > 100 µM | [12] > 100 µM | [18] > 100 µM | [13] > 100 µM | [19] > 100 µM | [20] > 100 µM | [14] > 100 µM | [15] 89.5 µM | [16] > 100 µM | [17] > 100 µM

CSc1ccc(/C=C2\N=C(c3ccccc3)N(c3nc4cc(Cl)c(F)cc4s3)C2=O)cc1
inactive: [1] 32.8 µM | [2] 50 µM | [3] 36.2 µM | [4] 25.2 µM | [5] 71.3 µM | [6] 31.4 µM | [7] 29.6 µM | [9] 57.3 µM | [11] 32.2 µM | [12] 71.3 µM | [18] 26.1 µM | [13] 32.3 µM | [19] 26.3 µM | [20] 64.3 µM | [14] 36.7 µM | [15] 25 µM | [16] 19.6 µM | [17] > 100 µM

COc1cccc(CCCNC(=O)Cc2ccccc2CO)c1
inactive: [1] > 100 µM | [2] > 100 µM | [3] > 100 µM | [4] > 100 µM | [5] > 100 µM | [6] > 100 µM | [7] > 100 µM | [8] > 100 µM | [9] > 100 µM | [11] > 100 µM | [12] > 100 µM | [19] > 100 µM | [20] > 100 µM | [14] > 100 µM | [15] > 100 µM | [16] > 100 µM | [17] > 100 µM

COc1cc(/C=C2\C(=O)N(Cc3ccccc3)C(c3ccccc3)S2(=O)=O)cc(OC)c1OC (centres undefined)
inactive: [1] 36.3 µM | [2] 91.6 µM | [3] 17.6 µM | [4] > 100 µM | [5] 5.12 µM | [6] 34.7 µM | [7] 4.11 µM | [8] 33.4 µM | [9] 35.4 µM | [10] 14.2 µM | [11] 27.6 µM | [12] > 100 µM | [13] 31.3 µM | [20] > 100 µM | [14] 74 µM | [16] 92.3 µM | [17] 26.2 µM

O=[N+]([O-])/C(C(Cl)=C(Cl)Cl)=C(\Nc1cccc2cccnc12)Sc1ccccc1
inactive: [1] 21.9 µM | [2] 22.9 µM | [3] 19.4 µM | [4] 23.4 µM | [5] 28.4 µM | [6] 12.6 µM | [7] 12.9 µM | [8] 18.3 µM | [9] 34.4 µM | [11] 22.1 µM | [12] 20.8 µM | [18] 31.5 µM | [13] 17.9 µM | [19] 20.8 µM | [20] 34.2 µM | [14] 22.2 µM | [15] 23.7 µM | [16] 16.2 µM | [17] 19.8 µM

CNC(=O)OCC1=C(COC(=O)NC)C(C)N(c2ccccc2)C1 (centres undefined)
inactive: [1] 50.9 µM | [2] 54.5 µM | [3] 39.9 µM | [4] 53.6 µM | [5] 26.7 µM | [6] 30.5 µM | [7] 23 µM | [8] 38.1 µM | [9] 29 µM | [11] 46.5 µM | [12] 25.4 µM | [18] 24.6 µM | [13] 37.7 µM | [19] 23.3 µM | [20] 42.4 µM | [14] 72.9 µM | [15] 39.4 µM | [16] 31.8 µM | [17] 35.6 µM

CC1SCCc2nc3ccccc3n21 (centres undefined)
inactive: [1] > 100 µM | [2] > 100 µM | [3] > 100 µM | [4] > 100 µM | [5] > 100 µM | [6] > 100 µM | [7] > 100 µM | [8] > 100 µM | [9] > 100 µM | [11] > 100 µM | [12] > 100 µM | [18] > 100 µM | [13] > 100 µM | [19] > 100 µM | [20] > 100 µM | [14] > 100 µM | [15] > 100 µM | [16] > 100 µM | [17] > 100 µM

COC(=O)C1(CCCCl)CCCN1C(=O)OC(C)(C)C (centres undefined)
inactive: [1] > 100 µM | [2] > 100 µM | [3] > 100 µM | [4] > 100 µM | [5] 36.7 µM | [6] > 100 µM | [8] > 100 µM | [9] > 100 µM | [11] > 100 µM | [12] > 100 µM | [13] > 100 µM | [20] > 100 µM | [14] > 100 µM | [15] > 100 µM | [16] > 100 µM | [17] > 100 µM

COc1cc2c3c(n(C)c(=O)c2cc1OC)-c1cc2c(cc1/C3=C\CCCCl)OCO2
inactive: [1] 20.5 µM | [5] 23.2 µM | [6] 23.8 µM | [7] 6.68 µM | [8] 19.9 µM | [9] 43.8 µM | [10] 20.8 µM | [11] 46.8 µM | [12] > 100 µM | [13] 43.6 µM | [20] 23 µM | [15] 11.9 µM | [16] 25.2 µM | [17] 36.9 µM
